Measured values from ChEMBL document CHEMBL1123917, “Antiulcer agents. 3. Structure-activity-toxicity relationships of substituted imidazo[1,2-a]pyridines and a related imidazo[1,2-a]pyrazine” (1987).
Activity calls are given as the source filed them. The rule behind the calls is not given here.

How the values were obtained:
Canis familiaris [1] = assay: Inhibition of gastric acid secretion stimulated by histamine in dog was determined by peroral administration; the regression was not significant; type: functional; details: Canis lupus familiaris, Stomach, po
Rattus norvegicus [2] = assay: Cytoprotective activity against ethyle alcohol induced ulcers was determined in rats by peroral administration of the compound; type: functional; details: po
Mus musculus [3] = species: Mus musculus; assay: Organ weight ratio was determined for the compound :control
Mus musculus [4] = assay: Organ weight (stomach) was determined after administration of the compound
Mus musculus [5] = species: Mus musculus; assay: Histopathology of the stomach was determined as HGM (Hyperplasia of grandular mucosa)in the presence of the compound.
Mus musculus [6] = species: Mus musculus; assay: Organ weight ratio was determined for the compound with respect to (8-Benzyloxy-2-methyl-imidazo[1,2-a]pyridin-3-yl) compound
Canis familiaris [7] = assay: Inhibition of gastric acid secretion stimulated by histamine in dog was determined by peroral administration; IA means inactive; type: functional, organism-based; details: Canis lupus familiaris; Stomach
Mus musculus [8] = species: Mus musculus; assay: Histopathology of the stomach was determined; N means normal variation in the presence of the compound.
Canis familiaris [9] = assay: Inhibition of gastric acid secretion stimulated by histamine in dog was determined by peroral administration of the compound; type: functional; details: Canis lupus familiaris, Stomach, po
Mus musculus [10] = species: Mus musculus; assay: Histopathology of the stomach was determined as HGM (Hyperplasia of grandular mucosa) in the presence of the compound.
Canis familiaris [11] = assay: Percent inhibition of Histamine stimulated gastric acid secretion at oral dosage of 4 mg/kg; type: functional; details: Canis lupus familiaris, Stomach
Canis familiaris [12] = assay: Percent inhibition of Histamine stimulated gastric acid secretion at oral dosage of 8 mg/kg; type: functional; details: Canis lupus familiaris, Stomach
Rattus norvegicus [13] = assay: Cytoprotective activity against ethyle alcohol induced ulcers was determined in rats by peroral administration; IA means inactive; type: functional, organism-based
Canis familiaris [14] = assay: Inhibition of gastric acid secretion stimulated by histamine in dog was determined by peroral administration confidence limits (p=0.05.); value ranges from 2.1-14.0; type: functional; details: Canis lupus familiaris, Stomach, po
Canis familiaris [15] = assay: Inhibition of gastric acid secretion stimulated by histamine in dog was determined by peroral administration; value ranges from 0.6-3.9; type: functional; details: Canis lupus familiaris, Stomach, po
Canis familiaris [16] = assay: Inhibition of gastric acid secretion stimulated by histamine in dog was determined by peroral administration; value ranges from 2.3-59.2; type: functional; details: Canis lupus familiaris, Stomach, po
Canis familiaris [17] = assay: Inhibition of gastric acid secretion stimulated by histamine in dog was determined by peroral administration; IA means inactive oral dose of 8 mg/kg; type: functional, organism-based; parameters: dose 8 mg/kg; details: Canis lupus familiaris; Stomach
Canis familiaris [18] = assay: Inhibition of gastric acid secretion stimulated by histamine in dog was determined by peroral administration; value ranges from 3.2-50.6; type: functional; details: Canis lupus familiaris, Stomach, po
Canis familiaris [19] = assay: Percent inhibition of Histamine -stimulated gastric acid secretion at the oral dosage of 4 mg/kg.; type: functional; details: Canis lupus familiaris, Stomach
Canis familiaris [20] = assay: Percent inhibition of Histamine -stimulated gastric acid secretion at the oral dosage of 8 mg/kg.; type: functional; details: Canis lupus familiaris, Stomach

| Structure (SMILES) | ED50 (Rattus norvegicus [2]) | Organ weight ratio (Mus musculus [3]) | Organ weight (Mus musculus [4]) | Histopathology (Mus musculus [5]) | Organ weight ratio (Mus musculus [6]) | Histopathology (Mus musculus [8]) | other results |
| --- | --- | --- | --- | --- | --- | --- | --- |
| Cc1nc2c(OCc3ccccc3)cccn2c1N | 6 mg/kg | 1.2 | 1.09 g | Hyperplasia of glandular mucosa | 1 | – | ED50 (Canis familiaris [1]): 2 mg/kg |
| Cc1cn2cccc(OCc3ccccc3)c2n1 | 4 mg/kg | 1 | 0.84 g | – | 0.7 | Within normal variation | ED50 (Canis familiaris [7]): inactive |
| Cc1nc2c(OCc3ccsc3)cccn2c1CC#N | 2 mg/kg | 1.5 | 1.12 g | – | 1 | – | ED50 (Canis familiaris [9]): 2.7 mg/kg; Histopathology (Mus musculus [10]): Hyperplasia of glandular mucosa |
| Cc1c(CC#N)nc2c(OCc3ccccc3)cccn12 | – | 1.2 | 0.98 g | Hyperplasia of glandular mucosa | 0.9 | – | inhibition in vivo at 4 mg/kg (Canis familiaris [11]): 19%; inhibition in vivo at 8 mg/kg (Canis familiaris [12]): 91%; ED50 (Canis familiaris [9]): > 4.4 mg/kg; ED50 (Rattus norvegicus [13]): inactive |
| Cc1cn2c(OCc3ccccc3)cccc2n1 | 1 mg/kg | 0.9 | 0.76 g | – | 0.7 | Within normal variation | ED50 (Canis familiaris [7]): inactive |
| Cc1nc2c(OCc3ccccc3)cccn2c1CC#N | 3 mg/kg | 1.4 | 1.13 g | Hyperplasia of glandular mucosa | 1 | – | ED50 (Canis familiaris [14]): 4.4 mg/kg |
| Cc1nc2c(OCc3ccccc3)nccn2c1N | 5 mg/kg | 1.1 | 0.86 g | – | 0.8 | Within normal variation | ED50 (Canis familiaris [15]): 1.4 mg/kg |
| Cc1nc2c(CCc3ccccc3)cccn2c1N | 9 mg/kg | 1.1 | 0.88 g | – | 0.8 | Within normal variation | ED50 (Canis familiaris [16]): 6.8 mg/kg |
| Cc1nc2ccc(CCc3ccccc3)cn2c1CC#N | 2.7 mg/kg | 1 | 0.81 g | – | 0.7 | Within normal variation | ED50 (Canis familiaris [17]): inactive |
| Cc1nc2c(O)cccn2c1CC#N | – | 1 | 0.8 g | – | 0.7 | Within normal variation | ED50 (Canis familiaris [7]): inactive; ED50 (Rattus norvegicus [13]): inactive |
| Cc1ccn2c(CC#N)c(C)nc2c1OCc1ccccc1 | 13 mg/kg | 1.1 | 0.9 g | – | 0.8 | Within normal variation | ED50 (Canis familiaris [18]): 7.1 mg/kg |
| Cc1nc2c(CCc3ccccc3)cccn2c1CC#N | 7 mg/kg | 1.2 | 0.99 g | Hyperplasia of glandular mucosa | 0.9 | – | inhibition in vivo at 4 mg/kg (Canis familiaris [19]): 3%; ED50 (Canis familiaris [9]): > 4.4 mg/kg; inhibition in vivo at 8 mg/kg (Canis familiaris [20]): 83% |
| Cc1nc2c(NCc3ccccc3)cccn2c1CC#N | 2 mg/kg | 1.2 | 0.9 g | Hyperplasia of glandular mucosa | 0.8 | – | ED50 (Canis familiaris [9]): 6.7 mg/kg |
| Cc1nc2ccc(CCc3ccccc3)cn2c1N | 5.7 mg/kg | 1 | 0.81 g | – | 0.7 | Within normal variation | ED50 (Canis familiaris [7]): inactive |
